Values after ≈ are worked out from the molar mass of the structure shown. Like-named read-outs stand apart in the source and are kept apart here.
Key:
[1] = target: KDM5B (Homo sapiens, UniProt Q9UGL1); assay: cell-based
Target sequence in this assay (Q9UGL1 whole entry): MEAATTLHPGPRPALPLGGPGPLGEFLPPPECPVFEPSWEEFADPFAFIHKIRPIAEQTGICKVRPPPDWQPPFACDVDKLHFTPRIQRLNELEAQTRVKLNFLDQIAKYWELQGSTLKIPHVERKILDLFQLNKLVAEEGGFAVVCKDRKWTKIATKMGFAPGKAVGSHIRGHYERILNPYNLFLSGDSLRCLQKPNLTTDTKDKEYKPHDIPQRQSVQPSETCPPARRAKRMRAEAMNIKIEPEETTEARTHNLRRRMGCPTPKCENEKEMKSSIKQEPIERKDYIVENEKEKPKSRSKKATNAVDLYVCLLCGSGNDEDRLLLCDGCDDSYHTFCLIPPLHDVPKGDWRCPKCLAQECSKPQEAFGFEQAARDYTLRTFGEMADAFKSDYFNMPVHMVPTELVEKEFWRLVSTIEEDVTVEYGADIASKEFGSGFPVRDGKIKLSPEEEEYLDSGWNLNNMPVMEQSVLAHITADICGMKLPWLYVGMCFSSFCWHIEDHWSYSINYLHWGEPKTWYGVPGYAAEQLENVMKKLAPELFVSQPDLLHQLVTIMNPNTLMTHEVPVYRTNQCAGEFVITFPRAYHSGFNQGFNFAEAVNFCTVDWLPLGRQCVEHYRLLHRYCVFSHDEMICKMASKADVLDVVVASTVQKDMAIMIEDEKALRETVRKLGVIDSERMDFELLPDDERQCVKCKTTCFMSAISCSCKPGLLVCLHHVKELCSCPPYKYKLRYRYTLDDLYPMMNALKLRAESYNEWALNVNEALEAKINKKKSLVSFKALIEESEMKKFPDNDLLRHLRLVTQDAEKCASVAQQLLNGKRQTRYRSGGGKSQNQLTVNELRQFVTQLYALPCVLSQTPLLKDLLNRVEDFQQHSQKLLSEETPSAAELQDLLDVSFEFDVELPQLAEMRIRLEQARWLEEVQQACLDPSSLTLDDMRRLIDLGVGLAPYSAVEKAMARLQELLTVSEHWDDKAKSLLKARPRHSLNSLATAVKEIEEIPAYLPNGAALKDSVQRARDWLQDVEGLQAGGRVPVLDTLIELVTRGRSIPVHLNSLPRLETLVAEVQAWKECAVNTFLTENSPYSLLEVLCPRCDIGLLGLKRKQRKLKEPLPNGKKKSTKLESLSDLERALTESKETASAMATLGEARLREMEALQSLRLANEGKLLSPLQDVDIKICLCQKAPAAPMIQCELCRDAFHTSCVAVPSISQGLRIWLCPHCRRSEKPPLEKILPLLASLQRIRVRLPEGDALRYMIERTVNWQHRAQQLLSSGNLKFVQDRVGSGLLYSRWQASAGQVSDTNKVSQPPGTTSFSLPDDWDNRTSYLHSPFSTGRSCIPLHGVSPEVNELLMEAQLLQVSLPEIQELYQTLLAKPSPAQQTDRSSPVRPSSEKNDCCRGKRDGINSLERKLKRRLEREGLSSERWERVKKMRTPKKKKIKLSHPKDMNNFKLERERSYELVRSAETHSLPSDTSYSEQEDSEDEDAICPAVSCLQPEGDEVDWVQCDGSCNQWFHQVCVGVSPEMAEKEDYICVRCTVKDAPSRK

[2] = test system: KDM5; conditions: H3K4Me3 levels in PC9 cells; cited from earlier work
[3] = target: T1, KDM5B (Homo sapiens, UniProt Q9UGL1); assay: cell-based; remark: listed apart in the source
T1 sequence (Q9UGL1 26-772): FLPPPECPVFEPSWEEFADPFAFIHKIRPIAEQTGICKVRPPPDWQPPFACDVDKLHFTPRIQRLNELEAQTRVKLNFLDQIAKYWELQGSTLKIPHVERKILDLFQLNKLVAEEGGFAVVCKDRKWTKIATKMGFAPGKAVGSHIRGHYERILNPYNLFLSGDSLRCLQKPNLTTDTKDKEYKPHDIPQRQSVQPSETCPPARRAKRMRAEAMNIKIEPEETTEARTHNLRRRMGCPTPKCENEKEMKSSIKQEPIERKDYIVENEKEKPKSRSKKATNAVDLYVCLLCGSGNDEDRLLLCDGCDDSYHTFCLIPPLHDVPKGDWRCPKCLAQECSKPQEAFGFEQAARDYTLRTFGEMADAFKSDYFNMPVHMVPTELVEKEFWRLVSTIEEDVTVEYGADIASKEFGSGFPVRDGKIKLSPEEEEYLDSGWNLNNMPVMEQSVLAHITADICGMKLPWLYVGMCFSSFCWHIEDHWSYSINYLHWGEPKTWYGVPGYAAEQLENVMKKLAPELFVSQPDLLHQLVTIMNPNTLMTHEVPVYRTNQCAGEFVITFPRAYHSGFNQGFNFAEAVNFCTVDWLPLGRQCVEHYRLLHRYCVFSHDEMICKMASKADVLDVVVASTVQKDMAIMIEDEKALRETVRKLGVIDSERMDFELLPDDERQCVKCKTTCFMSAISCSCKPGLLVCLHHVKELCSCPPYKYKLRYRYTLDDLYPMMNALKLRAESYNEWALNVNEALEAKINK

[4] = test system: LNCaP cells; assay: Cell uptake and stability in LNCaP cellular culture; format: in vitro ADME, human; conditions: 10 μM, up to 120 h
Description: Following 1, 6, 24, 48, 72 and 120 h incubation, media was collected from cells and immediately frozen at −80 °C. Cells were trypsinised, pelleted and then frozen at −80 °C until analysis.
Cell and tissue culture media extracts were analysed using a Dionex Ultimate 3000 UHPLC system coupled to a Thermo Scientific Q Exactive Plus orbitrap mass spectrometer (Thermo Fisher Scientific Inc., Waltham, USA). Separation of analytes was achieved using an Acquity UPLC HSS T3 column (1.8 μm, 100 × 2.1 mm) (Waters, Elstree, UK) at a temperature of 50 °C and a binary mobile phase gradient at a flow rate of 0.4 mL/min. […] Sample analysis was by electrospray atmospheric pressure ionization combined with full scan acquisition in positive ion mode. […] Full MS/dd-MS^2 (full MS scan followed by data dependent MS/MS) and Full MS/AIF (full MS scan followed by all ion fragmentation) workflows were used in combination. Identification/presence of metabolites was undertaken with the aid of the software Compound Discoverer (v2.0.0.303, Thermo Fisher Scientific Inc., Waltham, USA).

[5] = In vitro intrinsic microsomal clearance, rat; conditions: microsomes
[6] = Kinetic aqueous solubility
[7] = Human plasma protein binding
[8] = In vitro intrinsic microsomal clearance, mouse; conditions: microsomes
[9] = In vitro intrinsic microsomal clearance, human; conditions: microsomes

Structure (SMILES) | EC50 [1] [nM] | EC50 [2] [nM] | EC50 [3] [nM] | cell uptake [4] | stability in cellular culture (metabolites in cells or media) [4] | microsomal CLint [5] [µL/min/mg] | solubility kinetic [6] [µM] | fraction unbound [7] | microsomal CLint [8] [µL/min/mg] | microsomal CLint [9] [µL/min/mg]
CC(C)c1c(-c2cnn(C(C)(C)C)c2)[nH]c2c(C#N)cnn2c1=O [Compound 6] | 600 | 340 | 300 | – | – | – | – | – | – | –
O=c1[nH]cnc2c(-n3cc(CCN4CCC5(CCc6ccccc65)CC4)cn3)nccc12 [Compound 19a, 8-(4-(2-(2,3-Dihydrospiro[indene-1,4′-piperidin]-1′-yl)ethyl)-1H-pyrazol-1-yl)pyrido[3,4-d]pyrimidin-4(3H)-one] | – | – | – | uptake of the parent compounds in a time-dependent manner | no metabolites detected | 19.8 | 93.3 (≈ 39.8 µg/mL) | 0.11 | 7.5 | 24.7
O=c1[nH]cnc2c(-n3cc(CCN4CCC5(CCc6ccccc65)CC4)cn3)cccc12 [Compound 41] | – | – | – | uptake of the parent compounds in a time-dependent manner | no metabolites detected | – | – | – | – | –

Reference: publication PMC6580095, “C8-substituted pyrido[3,4-d]pyrimidin-4(3H)-ones: Studies towards the identification of potent, cell penetrant Jumonji C domain containing histone lysine demethylase 4 subfamily (KDM4) inhibitors, compound profiling in cell-based target engagement assays” (European Journal of Medicinal Chemistry, 2019)
